# Counter-ions that a name gives are not always drawn.
# Experiment: Antimicrobial activity assay: whole-cell MIC by broth microdilution (NCCLS M7-A6)
# Format: cell-based
# Details: not given
# Procedure: Whole-cell antimicrobial activity was determined by broth microdilution using the National Committee for Clinical Laboratory Standards (NCCLS) recommended procedure, Document M7-A6, “Methods for Dilution Susceptibility Tests for Bacteria that Grow Aerobically”. The compounds were tested in serial two-fold dilutions ranging from 0.016 to 16 mcg/mL. Compounds were evaluated against a panel of Gram-positive organisms, including Staphylococcus aureus WCUH29, Streptococcus pneumoniae 1629, Streptococcus pyogenes CN 10, and Enterococcus faecalis 2. In addition, compounds were evaluated against a panel of Gram-negative strains including Haemophilus influenzae NEMC1, E. coli 7623, and Moraxella catarrhalis Ravasio. The minimum inhibitory concentration (MIC) was determined as the lowest concentration of compound that inhibited visible growth. A mirror reader was used to assist in determining the MIC endpoint.
# Compounds of the present invention have MIC's ≦20 μg/ml versus all the organisms named above.
row,SMILES,MIC [µg/mL]
1,"COc1ccc2ncc(F)c(CCN3CC[C@@H](NCc4ccc5c(n4)NC(=O)CS5)[C@@H](O)C3)c2n1.Cl.Cl (single isomer, unassigned; enantiomer 2) [Example 70]",≤ 2

# Same assay, conditions: versus all the organisms named above (S. aureus WCUH29, S. pneumoniae 1629, S. pyogenes CN 10, E. faecalis 2, H. influenzae NEMC1, E. coli 7623, M. catarrhalis Ravasio); read-out: MIC
row,SMILES,MIC [µg/mL]
1,"COc1ccc2ncc(Cl)c(CCN3CC[C@H](NCc4cc5c(cn4)OCCO5)[C@H](O)C3)c2c1.Cl.Cl (single isomer, unassigned; enantiomer 1) [Example 45, cis-1-[2-(3-Chloro-6-methoxy-quinolin-4-yl)-ethyl]-4-[(2,3-dihydro-[1,4]dioxino[2,3-c]pyridin-7-ylmethyl)-amino]-piperidin-3-ol Dihydrochloride Enantiomer 1]",≤ 2
2,"COc1ccc2ncc(F)c(CCN3CC[C@H](NCc4cc5c(cn4)OCCO5)[C@H](O)C3)c2n1.Cl.Cl (single isomer, unassigned; enantiomer 1) [Example 66]",≤ 2
3,"COc1cc(F)c2ncc(F)c(CCN3CC[C@H](NCc4cnc5c(c4)NC(=O)CS5)[C@H](O)C3)c2c1.Cl.Cl (single isomer, unassigned; enantiomer 1) [Example 72]",≤ 2
4,"COc1cc(F)c2ncc(F)c(CCN3CC[C@H](NCc4ccc5c(n4)NC(=O)CS5)[C@H](O)C3)c2c1.Cl.Cl (single isomer, unassigned; enantiomer 1) [Example 73]",≤ 2
5,"COc1cc(F)c2ncc(F)c(CCN3CC[C@H](NCc4cc5c(cn4)OCCO5)[C@H](O)C3)c2c1.Cl.Cl.Cl.Cl (single isomer, unassigned; enantiomer 1) [Example 74]",≤ 2
6,"COc1ccc2ncc(F)c(CCN3CC[C@H](NCc4cnc5c(c4)NC(=O)CS5)[C@H](O)C3)c2c1.Cl.Cl (single isomer, unassigned; enantiomer 1) [Example 96]",≤ 2
7,"COc1cc(F)c2ncc(Cl)c(CCN3CC[C@H](NCc4ccc5c(n4)NC(=O)CS5)[C@H](O)C3)c2c1.Cl.Cl (single isomer, unassigned; enantiomer 1) [Example 97]",≤ 2
8,"COc1cc(F)c2ncc(Cl)c(CCN3CC[C@H](NCc4ccc5c(n4)NC(=O)CS5)[C@H](F)C3)c2c1.Cl.Cl (single isomer, unassigned; enantiomer 1) [Example 142, cis-6-{[(1-{2-[3-chloro-8-fluoro-6-(methoxy)-4-quinolinyl]ethyl}-3-fluoro-4-piperidinyl)amino]methyl}-2H-pyrido[3,2-b][1,4]thiazin-3(4H)-one dihydrochloride Enantiomer 1]",≤ 2
9,"COc1cc(F)c2ncc(F)c(CCN3CC[C@H](NCc4ccc5c(n4)NC(=O)CO5)[C@H](F)C3)c2c1.Cl.Cl (single isomer, unassigned; enantiomer 1) [Example 145, cis-6-{[(1-{2-[3,8-difluoro-6-(methoxy)-4-quinolinyl]ethyl}-3-fluoro-4-piperidinyl)amino]methyl}-2H-pyrido[3,2-b][1,4]oxazin-3(4H)-one dihydrochloride, Enantiomer 1]",≤ 2
10,"COc1cc(F)c2ncc(F)c(CCN3CC[C@H](NCc4ccc5c(c4)OCCO5)[C@H](F)C3)c2c1.Cl.Cl (single isomer, unassigned; enantiomer 1) [Example 147, cis-1-{2-[3,8-difluoro-6-(methoxy)-4-quinolinyl]ethyl}-N-(2,3-dihydro-1,4-benzodioxin-6-ylmethyl)-3-fluoro-4-piperidinamine dihydrochloride, Enantiomer 1]",≤ 2
11,"COc1cc(F)c2ncc(F)c(CCN3CC[C@H](NCc4ccc5c(n4)NC(=O)CS5)[C@H](F)C3)c2c1.Cl.Cl (single isomer, unassigned; enantiomer 1) [Example 149, cis-6-{[(-1-{2-[3,8-difluoro-6-(methoxy)-4-quinolinyl]ethyl}-3-fluoro-4-piperidinyl)amino]methyl}-2H-pyrido[3,2-b][1,4]thiazin-3(4H)-one dihydrochloride, Enantiomer 1]",≤ 2
12,"COc1cc(F)c2ncc(F)c(CCN3CC[C@H](NC(=O)c4ccc5c(n4)NC(=O)CS5)[C@H](F)C3)c2c1.Cl (single isomer, unassigned; enantiomer 1) [Example 151, cis-N-(1-{2-[3,8-difluoro-6-(methoxy)-4-quinolinyl]ethyl}-3-fluoro-4-piperidinyl)-3-oxo-3,4-dihydro-2H-pyrido[3,2-b][1,4]thiazine-6-carboxamide hydrochloride Enantiomer 1]",≤ 2
13,"COc1ccc2ncc(Cl)c(CCN3CC[C@@H](NCc4ccc5c(n4)NC(=O)CO5)[C@H](O)C3)c2n1.Cl.Cl.Cl (single isomer, unassigned; enantiomer 1) [Example 153, trans-6-({1-[2-(3-Chloro-6-methoxy-[1,5]naphthyridin-4-yl)-ethyl]-3-hydroxy-piperidin-4-ylamino}-methyl)-4H-pyrido[3,2-b][1,4] oxazin-3-one trihydrochloride Enantiomer 1]",≤ 2
14,"COc1ccc2ncc(Cl)c(CCN3CC[C@@H](NCc4cc5c(cn4)OCCO5)[C@H](O)C3)c2n1 (single isomer, unassigned; enantiomer 1) [Example 154, trans-1-{2-[3-chloro-6-(methoxy)-1,5-naphthyridin-4-yl]ethyl}-4-[(2,3-dihydro[1,4]dioxino[2,3-c]pyridin-7-ylmethyl)amino]-3-piperidinol Enantiomer 1]",≤ 2
15,"COc1ccc2ncc(F)c(C(O)CN3CCC(NCc4cc5c(cn4)OCCO5)CC3)c2c1.Cl.Cl (single isomer, unassigned; enantiomer 1) [Example 156, 2-{4-[(2,3-dihydro[1,4]dioxino[2,3-c]pyridin-7-ylmethyl)amino]-1-piperidinyl}-1-[3-fluoro-6-(methoxy)-4-quinolinyl]ethanol dihydrochloride Enantiomer 1]",≤ 2
16,"COc1ccc2ncc(Cl)c(CCN3CC[C@H](NCc4ccc5c(n4)NC(=O)CO5)[C@H](O)C3)c2c1 (single isomer, unassigned; enantiomer 2) [Example 6, 6-({(cis)-1-[2-(3-Chloro-6-methoxy-quinolin-4-yl)-ethyl]-3-hydroxy-piperidin-4-ylamino}-methyl)-4H-pyrido[3,2-b][1,4]oxazin-3-one Dihydrochloride Enantiomer 2]",≤ 2
17,"COc1ccc2ncc(Cl)c(CCN3CC[C@H](NCc4ccc5c(n4)NC(=O)CS5)[C@H](O)C3)c2c1 (single isomer, unassigned; enantiomer 2) [Example 8, 6-({(cis)-1-[2-(3-Chloro-6-methoxy-quinolin-4-yl)-ethyl]-3-hydroxy-piperidin-4-ylamino}-methyl)-4H-pyrido[3,2-b][1,4]thiazin-3-one Dihydrochloride Enantiomer 2]",≤ 2
18,"COc1ccc2ncc(Cl)c(CCN3CC[C@H](NCc4ccc5c(n4)NC(=O)CO5)[C@H](O)C3)c2n1.Cl.Cl (single isomer, unassigned; enantiomer 2) [Example 10, 6-({(cis)-1-[2-(3-Chloro-6-methoxy-[1,5]naphthyridin-4-yl)-ethyl]-3-hydroxy-piperidin-4-ylamino}-methyl)-4H-pyrido[3,2-b][1,4]oxazin-3-one Dihydrochloride Enantiomer 2]",≤ 2
19,"COc1ccc2ncc(Cl)c(CCN3CC[C@@H](NCc4ccc5c(n4)NC(=O)CS5)[C@H](O)C3)c2c1.Cl.Cl.Cl (single isomer, unassigned; enantiomer 2) [Example 17, 6-({(trans)-1-[2-(3-Chloro-6-methoxyquinolin-4-yl)ethyl]3-hydroxypiperidin-4-ylamino}methyl)-4H-pyrido[3,2-b][1,4]thiazin-3-one Trihydrochloride enantiomer 2]",≤ 2
20,"COc1ccc2ncc(Cl)c(CCN3CC[C@@H](NCc4ccc5c(n4)NC(=O)CO5)[C@H](O)C3)c2c1.Cl.Cl.Cl (single isomer, unassigned; enantiomer 2) [Example 18, 6-({(trans)-1-[2-(3-Chloro-6-methoxyquinolin-4-yl)ethyl]3-hydroxypiperidin-4-ylamino}methyl)-4H-pyrido[3,2-b][1,4]oxazin-3-one Trihydrochloride enantiomer 2]",≤ 2
21,"COc1ccc2ncc(Cl)c(CCN3CC[C@@H](NCc4ccc5c(n4)NC(=O)CS5)[C@H](O)C3)c2n1.Cl.Cl (single isomer, unassigned; enantiomer 2) [Example 39, (trans)-6-({1-[2-(3-Chloro-6-methoxy-[1,5]naphthyridin-4-yl)-ethyl]-3-hydroxy-piperidin-4-ylamino}-methyl)-4H-pyrido[3,2-b][1,4]-thiazin-3-one Dihydrochloride Enantiomer 2]",≤ 2
22,"COc1ccc2ncc(F)c(C(O)CN3CCC(NCc4cc5c(cn4)OCCO5)CC3)c2n1.Cl.Cl.O (single isomer, unassigned; enantiomer 2) [Example 100, 2-{4-[(2,3-Dihydro[1,4]dioxino[2,3-c]pyridin-7-ylmethyl)amino]-1-piperidinyl}-1-[3-fluoro-6-(methoxy)-1,5-naphthyridin-4-yl]ethanol Dihydrochloride Hydrate Enantiomer 2]",≤ 2
23,"COc1cc(F)c2ncc(F)c(CCN3CC[C@H](NCc4cc5c(cn4)OCCO5)[C@H](F)C3)c2c1.Cl.Cl (single isomer, unassigned; enantiomer 2) [Example 144, cis-1-{2-[3,8-difluoro-6-(methoxy)-4-quinolinyl]ethyl}-N-(2,3-dihydro[1,4]dioxino[2,3-c]pyridin-7-ylmethyl)-3-fluoro-4-piperidinamine dihydrochloride Enantiomer 2]",≤ 2
24,"COc1ccc2ncc(F)c(CCN3CC[C@@H](NCc4cc5c(cn4)OCCO5)[C@@H](O)C3)c2n1.Cl.Cl (single isomer, unassigned; enantiomer 2) [Example 158]",≤ 2
